Experimental data from patent EP3300716A1, “BIOFILM FORMATION INHIBITOR” (Riken Vitamin Co., Ltd., priority 2015, dated 2016).
“Also recorded” adds a separate entry of the source.

How the values were obtained:
[1] = tested on: Candida albicans NBRC 1594; experiment: Evaluation of biofilm formation inhibitory effect (96-well microplate static culture, crystal violet staining, O.D. 600); assay type: cell-based; details: class by 50% inhibitory concentration, threshold 20 ppm
Experimental: A potato dextrose agar (manufactured by Difco) was sterilized by autoclaving at 121°C for 15 minutes, added to a sterilized culture dish, and solidified to prepare an agar plate. A cryopreserved test fungus was spread on this agar plate and cultured at 30°C for 2 days. A yeast nitrogen base with 2% glucose (manufactured by Difco) was diluted 10-fold and sterilized by autoclaving at 121°C for 15 minutes. Twenty milliliters of this sterilized medium was placed into a conical flask with a baffle, and one loop of the agar-cultured test fungus was inoculated into the conical flask. Preculture was performed at 30°C with agitation at 150 rpm for 24 hours. Then, the fungal cells were collected by centrifugation (4700 rpm, 10 minutes, 20°C) . The collected fungal cells were washed with 20 mL of physiological saline and collected by centrifugation again (4700 rpm, 10 minutes, 20°C) . The collected fungal cells were resuspended in 10 mL of a Sabouraud-dextrose broth (liquid medium which contained 1.0% by mass of peptone and 4.0% by mass of glucose and was adjusted to a pH of 5.7 with 1 N hydrochloric acid, and hereinafter, it is called "SG medium"). This resuspension was diluted 20-fold with SG medium and used as a test fungal suspension. […] The test samples were separately dissolved in dimethyl sulfoxide (DMSO) to prepare test sample solutions. Two microliters of each test sample solution and 198 µL of the test fungal suspension were added to wells of a 96-well microplate (trade name: TC plate 96 well (Cell+); manufactured by Sarstedt) . The concentration of the test sample in the test sample solution was such that the concentration of the test sample in the combined total amount of the test sample solution and the test fungal suspension, i.e., the concentration of the test sample in the well would be 5 ppm, 25 ppm, 50 ppm or 100 ppm. Static culture was performed in the 96-well microplate containing the test sample solution and the test fungal suspension at 30°C for 2 days to allow biofilm formation to proceed in each well. […] After the static culture, the liquid in each well, including the test sample solution, the culture medium and the like, was removed, and the residue adherent to each well (cells, secretions, deposits, etc.) was regarded as a biofilm. To each well, 50 µL of a 0.01% by mass aqueous crystal violet solution (trade name, manufactured by Becton, Dickinson and Company) was added for staining of the biofilm. […] Then, 200 µL of ethanol was added to each well to elute the crystal violet bound to the biofilm, and the degree of formation of the biofilm adherent to the microplate was quantified. The quantification was performed by measuring the absorbance at 600 nm (O.D. 600) in each well with a microplate reader (model: SH-9000 Lab; manufactured by CORONA […] Co., Ltd.). The absorbance at 600 nm measured for the biofilm formed in the control well was used as the reference absorbance and assumed as 100% in terms of the degree of biofilm formation. The degree of biofilm formation for each test sample was calculated by comparison of the absorbance for the test sample with the reference absorbance. […] The graph of the logarithmic approximation curve was used to calculate the concentration of the test sample where the absorbance for the test sample is equal to 50% of the reference absorbance, that is, the degree of biofilm formation was 50% (hereinafter called "50% inhibitory concentration"). […]

[2] = tested on: Candida albicans NBRC 1594; experiment: Evaluation of fungistatic effect (streak culture on brain heart infusion agar plate, visual observation); assay type: cell-based; details: for Evaluation of fungistatic effect: 1000 ppm-treated plot, agar plate, 30°C for 1 day; for fungicidal: conclusion drawn from fungal growth at 1000 ppm
Experimental: Ten milliliters of a brain heart infusion agar (manufactured by Difco) was sterilized by autoclaving at 121°C for 15 minutes and then cooled down to 50°C. To this, 100 µL of a solution of the test sample in dimethyl sulfoxide (DMSO) was added, and the mixture was stirred until homogeneous. The homogeneous mixture was added to a sterilized culture dish to prepare an agar plate. The concentration of the test sample in the agar plate was 10 ppm, 100 ppm, 300 ppm or 1000 ppm. Next, one loop of a cryopreserved test fungus (Candida albicans NBRC 1594) was streaked on each agar plate and cultured at 30°C for 1 day. […] When no growth was observed along the streak line on the agar plate, the test sample was determined to be fungistatic at the indicated concentration.

[3] = tested on: Candida biofilm; details: Table 2 of Patent Literature 1; cited from earlier work

Molecule | Evaluation [1] | Evaluation of fungistatic effect [2] | fungicidal [2] | effective against biofilm formation [3]
CCCCCCCCCCCC(=O)OCC(O)COC(=O)CCCCCCCCCCC [Reference product 1, monoglyceryl dilaurate, reference compound] | Poor in inhibition of biofilm formation (when the 50% inhibitory concentration of the test sample was more than 20 ppm, the test sample was regarded as poor in the inhibition of biofilm formation) | not fungistatic; also recorded: Fungal growth was observed in a 1000 ppm-treated plot. No fungistatic effect | not fungicidal | 
diglyceryl dicaprylate [Present invention product 2] | Excellent in inhibition of biofilm formation (When the 50% inhibitory concentration of the test sample was 20 ppm or less, the test sample was regarded as excellent in the inhibition of biofilm formation) | Fungal growth was observed in a 1000 ppm-treated plot. No fungistatic effect. | none of the present invention products 1, 2, 3 and 4 were fungicidal | 
CC(=O)N1CCN(c2ccc(OCC3COC(Cn4ccnc4)(c4ccc(Cl)cc4Cl)O3)cc2)CC1 (stereo not drawn) [Reference product 2, ketoconazole, reference compound] | Poor in inhibition of biofilm formation (when the 50% inhibitory concentration of the test sample was more than 20 ppm, the test sample was regarded as poor in the inhibition of biofilm formation) |  |  | 
diglyceryl monocaprylate |  |  |  | poorly effective against biofilm formation
diglyceryl dicaprylate [Present invention product 3] | Excellent in inhibition of biofilm formation (When the 50% inhibitory concentration of the test sample was 20 ppm or less, the test sample was regarded as excellent in the inhibition of biofilm formation) | Fungal growth was observed in a 1000 ppm-treated plot. No fungistatic effect. | none of the present invention products 1, 2, 3 and 4 were fungicidal | 
glyceryl dilaurate |  |  |  | less effective against biofilm formation than glyceryl monolaurate
monoglyceryl dicaprylate [Present invention product 1] | Excellent in inhibition of biofilm formation (When the 50% inhibitory concentration of the test sample was 20 ppm or less, the test sample was regarded as excellent in the inhibition of biofilm formation) | Fungal growth was observed in a 1000 ppm-treated plot. No fungistatic effect. | none of the present invention products 1, 2, 3 and 4 were fungicidal | 
